Results on 30 compounds are retold here after patent US11045457B2, “Piperidinyl-3-(aryloxy)propanamides and propanoates” (priority 2018, dated 2021).

The structures appear in SMILES notation.

Assay [1] addresses T1, SSTR4 (Homo sapiens (Human), UniProt P31391). As to the kind of experiment: SSTR4 I-125 somatostatin competition binding assay (membranes from CHO-K1 cells overexpressing SSTR4). As to conditions: competition with I-125 labeled somatostatin; for IC50: read-out: SSTR4 Binding pIC50 (converted).
Method: Membranes from CHO-K1 cells overexpressing SSTR4 are purchased from Perkin Elmer (catalog number ES-524-M400UA). Test compounds are suspended in DMSO and then diluted in assay buffer (25 mM HEPES pH 7.4, 10 mM MgCl2, 1 mM CaCl2), 0.5% BSA) plus 0.2 nM I-125 labeled somatostatin (Perkin Elmer catalog number NEX389). […] Then 1 μg of SSTR4 membranes in 50 μL assay buffer are added per well. The Plate is incubated for 60 minutes at room temperature. FilterMat A filters (Perkin Elmer catalog number 1450-421) are pre-soaked in 0.5% PEI (Sigma catalog number P3143). The contents of the assay plate are transferred to filters with a TomTech harvester and washed 5 times with 20 mM HEPES, 100 mM NaCl. The filters are dried in a microwave oven then transferred to sample bag containing a scintillator sheet (Perkin Elmer catalog number 1450-441). The scintillator sheets are melted to filters using a heat block. The filters are then read in a MicroBeta scintillation counter. Binding Ki curves are generated using Activity Base for Screening Data Management and the results are reported as pIC50.
Assay [2] deals with T1, SSTR4. Put plainly: Inhibition of forskolin stimulated cAMP in CHO-K1 cells overexpressing SSTR4. As to conditions: for EC50: read-out: SSTR4 Activity pEC50 (converted). The format is cell-based. In outline:
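Read-out is a HTRF LANCE Ultra cAMP competition using Eu-labelled streptavidin and biotin-cAMP, incubated 60 min at room temperature. It followed a 30 min room-temperature exposure of Kreb's Ringer-washed cells to compound plus forskolin. Potency is expressed as pEC50.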

T1 sequence (P31391 whole entry): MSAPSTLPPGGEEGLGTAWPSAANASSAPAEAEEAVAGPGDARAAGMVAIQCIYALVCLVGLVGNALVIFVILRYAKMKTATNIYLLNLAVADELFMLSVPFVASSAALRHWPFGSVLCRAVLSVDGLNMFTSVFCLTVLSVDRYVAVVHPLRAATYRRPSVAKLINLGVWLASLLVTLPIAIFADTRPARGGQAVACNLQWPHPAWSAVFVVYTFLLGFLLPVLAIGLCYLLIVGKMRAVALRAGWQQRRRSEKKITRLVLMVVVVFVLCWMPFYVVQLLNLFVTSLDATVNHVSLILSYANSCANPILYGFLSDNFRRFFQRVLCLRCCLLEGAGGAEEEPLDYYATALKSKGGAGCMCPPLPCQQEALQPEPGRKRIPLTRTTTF

Regarding `C[C@@H]1CN(C)CC[C@H]1NC(=O)C(C)(C)COc1ncccc1C(F)(F)F` (relative stereo) [Example 109, trans-N-(1,3-dimethylpiperidin-4-yl)-2,2-dimethyl-3-((3-(trifluoromethyl)pyridin-2-yl)oxy)propanamide], the “SSTR4 Binding pIC50” value at SSTR4 [1] was found to be 7.0. Also, the “SSTR4 Activity pEC50” value on SSTR4 [2] amounted to 8.0.
Turning to `Cc1ncccc1[C@@H]1CNCC[C@H]1OC(=O)C(C)(C)COc1ncccc1C(F)(F)F` (racemic) [Example 170, trans-3-(2-methylpyridin-3-yl)piperidin-4-yl 2,2-dimethyl-3-((3-(trifluoromethyl)pyridin-2-yl)oxy)propanoate], the IC50 on SSTR4 [1] is 200 nM. Moreover, the EC50 on SSTR4 [2] was 39.8 nM.
In the case of `COc1cccnc1OCC(C)(C)C(=O)NC1CCN(C)CC1` [Example 49, 3-((3-methoxypyridin-2-yl)oxy)-2,2-dimethyl-N-(1-methylpiperidin-4-yl)propanamide], the “SSTR4 Binding pIC50” value at SSTR4 [1] is 6.0. For the same compound, the “SSTR4 Activity pEC50” value on SSTR4 [2] stood at 6.7.
For `C[C@@H]1CN(C)CC[C@H]1NC(=O)C(C)(C)COc1ncccc1C(F)(F)F` (relative stereo) [Example 11, trans-N-(1,3-dimethylpiperidin-4-yl)-2,2-dimethyl-3-((3-(trifluoromethyl)pyridin-2-yl)oxy)propanamide] the same measures were 7.0 and 8.0.
The corresponding values for `CC[C@@H]1CN(C)CC[C@@H]1NC(=O)C(C)(C)COc1ncccc1C(F)(F)F` (relative stereo) [Example 111, cis-N-(3-ethyl-1-methylpiperidin-4-yl)-2,2-dimethyl-3-((3-(trifluoromethyl)pyridin-2-yl)oxy)propanamide] are 6.7 and 7.7.
As to `Cc1cnc(OCC(C)(C)C(=O)NC2CCN(C)CC2)c(C)c1` [Example 84, 3-((3,5-dimethylpyridin-2-yl)oxy)-2,2-dimethyl-N-(1-methylpiperidin-4-yl)propanamide], the “SSTR4 Binding pIC50” value at SSTR4 [1] is recorded as 6.5. The “SSTR4 Activity pEC50” value on SSTR4 [2] turned out to be 7.4.
The corresponding values for `C[C@@H]1CN(C)CC[C@H]1NC(=O)C(C)(C)COc1ncccc1OC(F)(F)F` (single isomer, unassigned) [Example 108] are 6.1 and 6.8.
Consider `CC[C@@H]1CN(C)CC[C@H]1NC(=O)C(C)(C)COc1ncccc1OC(F)(F)F` (racemic) [Example 115, N-(trans-3-ethyl-1-methylpiperidin-4-yl)-2,2-dimethyl-3-((3-(trifluoromethoxy)pyridin-2-yl)oxy)propanamide], for which the IC50 at SSTR4 [1] is 5.01 nM. Moreover, the EC50 at SSTR4 [2] is 0.631 nM.
Take `Cc1cccnc1OCC(C)(C)C(=O)N[C@H]1CCN(C)C[C@@H]1F` [Example 121, N-((3S,4S)-3-fluoro-1-methylpiperidin-4-yl)-2,2-dimethyl-3-((3-methylpyridin-2-yl)oxy)propanamide]: on SSTR4 [1], the “SSTR4 Binding pIC50” value worked out at 6.6. The “SSTR4 Activity pEC50” value on SSTR4 [2] is given as 6.9.
For `CC[C@@H]1CN(C)CC[C@@H]1NC(=O)C(C)(C)COc1ncccc1OC(F)(F)F` (relative stereo) [Example 116, N-(cis-3-ethyl-1-methylpiperidin-4-yl)-2,2-dimethyl-3-((3-(trifluoromethoxy)pyridin-2-yl)oxy)propanamide] the same measures were 6.2 and 7.5.
The corresponding values for `O=C(N[C@H]1CCNC[C@@H]1F)C(F)(F)COc1ncccc1OC(F)(F)F` [Example 207, 2,2-difluoro-N-((3S,4S)-3-fluoropiperidin-4-yl)-3-((3-(trifluoromethoxy)pyridin-2-yl)oxy)propanamide] are 7.6 and 8.1.
In the case of `C[C@H]1CN(C)CC[C@@H]1NC(=O)C(C)(C)COc1ncccc1C(F)(F)F` [Example 105, N-((3S,4S)-1,3-dimethylpiperidin-4-yl)-2,2-dimethyl-3-((3-(trifluoromethyl)pyridin-2-yl)oxy)propanamide], the “SSTR4 Binding pIC50” value at SSTR4 [1] is listed as 7.2. Moreover, the “SSTR4 Activity pEC50” value on SSTR4 [2] was 8.1.
The corresponding values for `C[C@@H]1C[C@H](NC(=O)C(C)(C)COc2ncccc2C(F)(F)F)CCN1C` [Example 176] are 7.1 and 7.7.
The corresponding values for `C[C@H]1CN(C)CC[C@@H]1NC(=O)C(C)(C)COc1ncccc1OC(F)(F)F` [Example 107, N-((3S,4S)-1,3-dimethylpiperidin-4-yl)-2,2-dimethyl-3-((3-(trifluoromethoxy)pyridin-2-yl)oxy)propanamide] are 7.7 and 8.7.
For `C[C@H]1CNCC[C@@H]1NC(=O)C(C)(C)COc1ccccc1F` [Example 196, 3-(2-fluorophenoxy)-2,2-dimethyl-N-((3S,4S)-3-methylpiperidin-4-yl)propanamide] the same measures were 7.5 and 8.5.
On to `C[C@@H]1C[C@H](NC(=O)C(F)(F)COc2ncccc2OC(F)(F)F)CCN1C` [Example 206, N-((2R,4R)-1,2-dimethylpiperidin-4-yl)-2,2-difluoro-3-((3-(trifluoromethoxy)pyridin-2-yl)oxy)propanamide], for which the “SSTR4 Binding pIC50” value on SSTR4 [1] is 6.7. On SSTR4 [2], the “SSTR4 Activity pEC50” value came out at 7.7.
The corresponding values for `CC(C)(COc1ncccc1C(F)(F)F)C(=O)N[C@H]1CCNC[C@@H]1F` [Example 158, N-((3S,4S)-3-fluoropiperidin-4-yl)-2,2-dimethyl-3-((3-(trifluoromethyl)pyridin-2-yl)oxy)propanamide] are 8.1 and 8.2.
As for `Cc1cccnc1OCC(C)(C)C(=O)NC1CCN(C)CC1` [Example 1, 2,2-dimethyl-N-(1-methylpiperidin-4-yl)-3-((3-methylpyridin-2-yl)oxy)propanamide], the “SSTR4 Binding pIC50” value at SSTR4 [1] worked out at 6.4. Further, at SSTR4 [2], the “SSTR4 Activity pEC50” value is 7.3.
Regarding `Cc1cnc(OCC(C)(C)C(=O)N[C@H]2CCN(C)C[C@@H]2C)c(C)c1` [Example 141, N-((3S,4S)-1,3-dimethylpiperidin-4-yl)-3-((3,5-dimethylpyridin-2-yl)oxy)-2,2-dimethylpropanamide], the “SSTR4 Binding pIC50” value on SSTR4 [1] is given as 6.8. For the same compound, the “SSTR4 Activity pEC50” value at SSTR4 [2] was 7.4.
As to `C[C@H]1C[C@@H](NC(=O)C(F)(F)COc2ncccc2C(F)(F)F)CCN1C` (racemic) [Example 191, cis-N-(1,2-dimethylpiperidin-4-yl)-2,2-difluoro-3-((3-(trifluoromethyl)pyridin-2-yl)oxy)propanamide], the IC50 on SSTR4 [1] was 200 nM. The EC50 at SSTR4 [2] was 79.4 nM.
As to `C[C@H]1C[C@@H](NC(=O)C(C)(C)COc2ncccc2C(F)(F)F)CCN1C` [Example 178, N-((2S,4S)-1,2-dimethylpiperidin-4-yl)-2,2-dimethyl-3-((3-(trifluoromethyl)pyridin-2-yl)oxy)propanamide], the “SSTR4 Binding pIC50” value at SSTR4 [1] is reported as 6.5.
Take `Cc1cc(C(F)(F)F)cnc1OCC(C)(C)C(=O)NC1CCN(C)CC1` [Example 91, 2,2-dimethyl-3-((3-methyl-5-(trifluoromethyl)pyridin-2-yl)oxy)-N-(1-methylpiperidin-4-yl)propanamide]: the “SSTR4 Activity pEC50” value at SSTR4 [2] came to 6.0.
Take `Cc1ccc([C@@H]2CN(CC#N)C[C@H]2NC(=O)C(C)(C)COc2ncccc2C(F)(F)F)cn1` (relative stereo) [Example 103, trans-N-(1-(cyanomethyl)-4-(6-methylpyridin-3-yl)pyrrolidin-3-yl)-2,2-dimethyl-3-((3-(trifluoromethyl)pyridin-2-yl)oxy)propanamide]: the EC50 at SSTR4 [2] is 631 nM.
On the same count and under the same terms, to `CN1C[C@@H](NC(=O)C(C)(C)COc2ncccc2C2CC2)[C@H](c2ccc(Cl)cc2)C1` (relative stereo) [Example 94, trans-N-(4-(4-chlorophenyl)-1-methylpyrrolidin-3-yl)-3-((3-cyclopropylpyridin-2-yl)oxy)-2,2-dimethylpropanamide] belongs 20 nM.
Take `CN1CC[C@@H](CNC(=O)C(C)(C)COc2ncccc2C(F)(F)F)C1` [Example 37, (S)-2,2-dimethyl-N-((1-methylpyrrolidin-3-yl)methyl)-3-((3-(trifluoromethyl)pyridin-2-yl)oxy)propanamide]: the “SSTR4 Activity pEC50” value at SSTR4 [2] was 6.3.
`Cc1cnc(OCC(C)(C)C(=O)NC2CCN(C)CC2)c(Cl)c1` [Example 82, 3-((3-chloro-5-methylpyridin-2-yl)oxy)-2,2-dimethyl-N-(1-methylpiperidin-4-yl)propanamide]: the “SSTR4 Activity pEC50” value on SSTR4 [2] was found to be 7.0.
As for `Cc1ccc([C@@H]2CN(C)C[C@H]2NC(=O)C(C)(C)COc2ncccc2C)cn1` (relative stereo) [Example 60, trans-2,2-dimethyl-N-(1-methyl-4-(6-methylpyridin-3-yl)pyrrolidin-3-yl)-3-((3-methylpyridin-2-yl)oxy)propanamide], on SSTR4 [2], the EC50 is 79.4 nM.
Turning to `Cc1ccnc(OCC(C)(C)C(=O)NC2CCN(C)CC2)c1C` [Example 88, 3-((3,4-dimethylpyridin-2-yl)oxy)-2,2-dimethyl-N-(1-methylpiperidin-4-yl)propanamide], the “SSTR4 Activity pEC50” value on SSTR4 [2] is 6.6.
Still for that read-out and setting: to `CN1CCC(NC(=O)C2(COc3ccccc3Cl)CC2)CC1` [Example 81, 1-((2-chlorophenoxy)methyl)-N-(1-methylpiperidin-4-yl)cyclopropane-1-carboxamide] belongs 6.3.
Regarding `CCO[C@@H]1CN(C)C[C@H]1NC(=O)C(C)(C)COc1ccccc1CC` (relative stereo) [Example 95, trans-N-(4-ethoxy-1-methylpyrrolidin-3-yl)-3-(2-ethylphenoxy)-2,2-dimethylpropanamide], the EC50 at SSTR4 [2] was 79.4 nM.
